Measured values taken from patent US20090124672A1 (priority 2007, published 2009).

Target: T1, hALDH2 (recombinant human mitochondria ALDH) (Homo sapiens, UniProt P05091)
T1 sequence (P05091 18-517): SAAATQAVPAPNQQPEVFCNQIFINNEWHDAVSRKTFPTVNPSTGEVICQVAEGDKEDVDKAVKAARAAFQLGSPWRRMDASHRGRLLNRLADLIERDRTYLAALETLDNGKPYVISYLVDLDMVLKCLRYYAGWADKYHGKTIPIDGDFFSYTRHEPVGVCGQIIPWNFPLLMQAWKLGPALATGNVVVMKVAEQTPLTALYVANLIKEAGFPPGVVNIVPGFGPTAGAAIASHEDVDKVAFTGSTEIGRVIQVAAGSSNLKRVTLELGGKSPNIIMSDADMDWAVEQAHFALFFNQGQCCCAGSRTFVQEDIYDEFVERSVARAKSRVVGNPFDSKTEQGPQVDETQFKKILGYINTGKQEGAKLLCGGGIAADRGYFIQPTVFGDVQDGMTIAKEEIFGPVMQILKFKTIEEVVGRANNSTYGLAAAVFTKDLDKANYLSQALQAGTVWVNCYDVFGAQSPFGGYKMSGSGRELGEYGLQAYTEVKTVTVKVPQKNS
Assay: ALDH2 inhibition assay (NADH formation, formaldehyde substrate)
Assay type: biochemical
Method: ALDH2 inhibition assays were performed in sodium phosphate buffer (50 mM, pH 7.4) containing 1.2 mM NAD^+ (Sigma N7004), 1 nM hALDH2 (recombinant human mitochondria ALDH), various concentrations of test compounds (from 0.03 nM to 1000 nM), and 0.15 mM freshly prepared formaldehyde solution (Ladd Research 20295). Reactions were initiated by the addition of formaldehyde and rates were recorded by monitoring NADH formation in a temperature controlled (25° C.) FluoroMax-2 Fluorimeter with excitation and emission wavelengths set at 340 and 460 nm, respectively. […] Normally, IC50 values were determined by fitting concentration-inhibition data to sigmoidal dose-response curves with two-floating parameters: IC50 and Hill coefficient. When tight binding situation was suspected, apparent Ki values were estimated by fitting dose-response data to Morrison's equation [Methods in Enzymology 63, 437-467, 1979].

For `O=c1c(-c2ccc(O)cc2)coc2cc(OCc3coc(-c4cc(F)cc(F)c4)n3)ccc12` [PT-14, 7-{[2-(3,5-difluorophenyl)(1,3-oxazol-4-yl)]methoxy}-3-(4-hydroxyphenyl)chromen-4-one], the IC50 was 60 nM.

With `O=c1c(-c2ccc(O)cc2)coc2cc(OCc3coc(-c4ccc(F)c(F)c4)n3)ccc12` [PT-15, 7-{[2-(3,4-difluorophenyl)(1,3-oxazol-4-yl)]methoxy}-3-(4-hydroxyphenyl)chromen-4-one] the IC50 was 120 nM.

For `O=c1c(-c2ccc(O)cc2)coc2cc(OCc3coc(-c4ccc(F)cc4)n3)ccc12` [PT-16, 7-{[2-(4-fluorophenyl)(1,3-oxazol-4-yl)]methoxy}-3-(4-hydroxyphenyl)chromen-4-one], the IC50 was 47 nM.

`O=c1c(-c2ccc(O)cc2)coc2cc(OCc3coc(-c4ccc(Cl)cc4)n3)ccc12` [PT-17, 7-{[2-(4-chlorophenyl)(1,3-oxazol-4-yl)]methoxy}-3-(4-hydroxyphenyl)chromen-4-one] was tested, and the IC50 was 573 nM.

`O=c1c(-c2ccc(O)cc2)coc2cc(OCc3noc(-c4ccccc4)n3)ccc12` [PT-24, 3-(4-hydroxyphenyl)-7-[(5-phenyl(1,2,4-oxadiazol-3-yl))methoxy]chromen-4-one] was tested, and the IC50 was 160 nM.

In the case of `N#Cc1cccc(COc2ccc3c(=O)c(-c4ccc(O)cc4)coc3c2)c1` [PT-25, 3-{[3-(4-hydroxyphenyl)-4-oxochromen-7-yloxy]methyl}benzenecarbonitrile], the IC50 is reported as 4 nM.

Compound `O=c1c(-c2ccc(O)cc2)coc2cc(OCc3cccc(C(F)(F)F)c3)ccc12` [PT-26, 3-(4-hydroxyphenyl)-7-{[3-(trifluoromethyl)phenyl]methoxy}chromen-4-one] has an IC50 of 34 nM.

`O=c1c(-c2ccc(O)cc2)coc2cc(OCc3cc(F)cc(C(F)(F)F)c3)ccc12` [PT-28, 7-{[3-fluoro-5-(trifluoromethyl)phenyl]methoxy}-3-(4-hydroxyphenyl)chromen-4-one] was tested, and the IC50 was 58 nM.

With `O=c1c(-c2ccc(O)cc2)coc2cc(OCc3noc(-c4cc(F)cc(C(F)(F)F)c4)n3)ccc12` [PT-29, 7-({5-[3-fluoro-5-(trifluoromethyl)phenyl](1,2,4-oxadiazol-3-yl)}methoxy)-3-(4-hydroxyphenyl)chromen-4-one] the IC50 was 10 nM.

`O=c1c(-c2ccc(O)cc2)coc2cc(OCc3noc(-c4ccc(F)c(C(F)(F)F)c4)n3)ccc12` [PT-30, 7-({5-[4-fluoro-3-(trifluoromethyl)phenyl](1,2,4-oxadiazol-3-yl)}methoxy)-3-(4-hydroxyphenyl)chromen-4-one] showed an IC50 of 100 nM.

For `O=c1c(-c2ccc(O)cc2)coc2cc(OCc3noc(-c4cc(C(F)(F)F)ccc4C(F)(F)F)n3)ccc12` [PT-31, 7-({5-[2,5-bis(trifluoromethyl)phenyl](1,2,4-oxadiazol-3-yl)}methoxy)-3-(4-hydroxyphenyl)chromen-4-one], the IC50 was 20 nM.

`C=CCOC(=O)c1cccc(-c2nc(COc3ccc4c(=O)c(-c5ccc(O)cc5)coc4c3)no2)c1` [PT-32, prop-2-enyl 3-(3-{[3-(4-hydroxyphenyl)-4-oxochromen-7-yloxy]methyl}-1,2,4-oxadiazol-5-yl)benzoate] gave an IC50 of 1150 nM.

`CC(C)OC(=O)c1cccc(COc2ccc3c(=O)c(-c4ccc(O)cc4)coc3c2)c1` [PT-35, methylethyl 3-{[3-(4-hydroxyphenyl)-4-oxochromen-7-yloxy]methyl}benzoate] was tested, and the IC50 was 20 nM.

In the case of `O=C(O)c1ccc(COc2ccc3c(=O)c(-c4ccc(O)cc4)coc3c2)cc1` [PT-36, 4-{[3-(4-hydroxyphenyl)-4-oxochromen-7-yloxy]methyl}benzoic acid], the IC50 is reported as 170 nM.

`NC(=O)c1ccc(COc2ccc3c(=O)c(-c4ccc(O)cc4)coc3c2)cc1` [PT-37, 4-{[3-(4-hydroxyphenyl)-4-oxochromen-7-yloxy]methyl}benzamide] showed an IC50 of 380 nM.

Compound `O=c1c(-c2ccc(O)cc2)coc2cc(OCc3noc(-c4ccc(C(F)(F)F)cc4)n3)ccc12` [PT-38, 3-(4-hydroxyphenyl)-7-({5-[4-(trifluoromethyl)phenyl](1,2,4-oxadiazol-3-yl)}methoxy)chromen-4-one] has an IC50 of 600 nM.
